# Data as given in patent publication US20020049185A1, “Malonic acid based matrix metalloproteinase inhibitors” (ROCHE DIAGNOSTICS GMBH, priority 1994, published 2002).
# pIC50: −log10 of the molar value. Residues, ends and D or L forms follow the SMILES beside them. *: point of attachment. NHOH = ON*
# Target: T1, catalytic domain (Met80-Gly242) of human neutrophil collagenase (Homo sapiens, UniProt P22894)
# T1 construct: 8 nM catalytic domain (Met80-Gly242) of human neutrophil collagenase; made in house; host or cells: E. coli
# Experiment: Enzyme assay: inhibition of cleavage of a fluorogenic substrate by the HNC catalytic domain
# Format: biochemical
# Conditions: HNC (MMP-8) catalytic domain, 25° C., substrate DNP-Pro-Leu-Gly-Leu-Trp-Ala-D-Arg-NH2
# Procedure: In order to determine the inhibition of MMPs, for example HNC, the catalytic domain (isolation and purification see example 1) is incubated with inhibitors having various concentrations. Subsequently, the initial reaction rate in the conversion of a standard substrate is measured in a manner analogous to F. Grams et al. (1993)^51.
# The results are evaluated by plotting the reciprocal reaction rate against the concentration of the inhibitor. The inhibition constant (Ki) is obtained as the negative section of the abscissis by the graphical method according to M. Dixon (1953)^28.
# The synthetic collagenase substrate is a heptapeptide which is coupled, at the […], with DNP (dinitrophenol). Said DNP residue quenches by steric hindrance the fluorescence of the adjacent tryptophane of the heptapeptide. After cleavage of a tripeptide which includes the DNP group, the tryptophane fluorescence increases. The proteolytic cleavage of the substrate therefore can be measured by the fluorescence value.
# The assay was performed at 25° C. in a freshly prepared 50 mM Tris buffer (pH 8.0) treated with dithiozone to remove traces of heavy metals. 4 mM CaCl2 was added and the buffer saturated wtih argon. Stock solutions of adamalysin II were prepared by centrifugation of the protein from an ammonium sulfate suspension and subsequent dissolution in the assay buffer Stock solutions of collagenase were diluted with the assay buffer. Enzyme concentrations were determined by uv measurements (ε280=2.8·10^4 M^−1 cm^−1, ε288·2.2 10^4 M^−1 cm^−1) and the stock solutions were stored in the cold. This solution was diluted 1 100 to obtain the final 16 nM assay concentration. The fluorogenic substrate DNP-ProLeu-Gly-Leu-Trp-Ala-D-Arg-NH2 with a Km of 52 μM was used at a concentration of 21.4 μM, for the Ki determination a 12.8 μM concentration has also been used. Substrate fluorescence was measured at an excitation and emission wavelength of λ=[…], respectively, on a spectrofluorimeter (Perkin Elmer, Model 650-40) equipped with a thermostated cell holder. Substrate hydrolysis was monitored for 10 min. immediately after adding the enzyme. All reactions were performed at least in triplicate. The Ki values of the inhibitors were calculated from the intersection point of the straight lines obtained by the plots of vo/vi vs. [concentration of inhibitor], whereas IC50 values were calculated from plots of vi/vo [concentration of inhibitor] by non-linear regression with simple robust weighting.
# 50 mM Tris/HCl pH 7.6 (Tris=Tris-(hydroxymethyl)-aminomethan)
# 8 nM catalytic domain (Met80-Gly242) of human neutrophil collagenase
# 10 microM DNP-Pro-Leu-Gly-Leu-Trp-Ala-D-Arg-NH2
# A solution of the enzyme and inhibitor in assay buffer (25° C.) was prepared. The reaction was started directly by giving the substrate into the solution. The cleavage of the flourogenic substrate was followed by flourescence spectroscopy with an excitation and emision wavelength of 280 and 350 nm, respectively. The IC50 value was calculated as the inhibitor concentration, which is necessary to decrease the velocity of the reaction to the half in comparison to the reaction without inhibitor.
# T1 sequence (P22894 100-262): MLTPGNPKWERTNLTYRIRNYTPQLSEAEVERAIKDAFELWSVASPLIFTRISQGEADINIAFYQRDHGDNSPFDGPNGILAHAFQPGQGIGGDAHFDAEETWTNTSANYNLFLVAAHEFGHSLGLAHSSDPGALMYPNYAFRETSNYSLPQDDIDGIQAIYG
row,Compound,pIC50
1,"CC(C)CC(C(=O)NO)C(=O)NC(Cc1ccccc1)C(=O)NCc1ccccc1 (mixture of isomers) [ER074, HONH-iBM-Phe-NHBn]",4.54
2,"Cc1ccc(CCNC(=O)C(CCc2ccccc2)NC(=O)C(CC(C)C)C(=O)NO)cc1 (mixture of isomers) [ER070, HONH-iBM-Homophe-NHCH2CH2Ph(p-Me)]",5.80
3,"CC(C)CC(C(=O)NO)C(=O)N[C@@H](C)C(=O)NCC(N)=O (stereo partly drawn) [ER029, HONH-2-isobutylmalonyl-L-alanyl glycinamide, reference compound]",3.86

# Other lines, results leading:
row,pIC50,Compound
1,4.24,"CC(C)CC(C(=O)NO)C(=O)NC(C)C(=O)NCc1ccccc1 (mixture of isomers) [ER014, HONH-iBM-Ala-NHBn]"
2,4.21,"CC(C)CC(C(=O)NO)C(=O)NC(CO)C(=O)NCC(=O)NCc1ccccc1 (mixture of isomers) [ER059, HONH-iBM-Ser-Gly-NHBn]"
3,4.40,"CC(C)CC(C(=O)NO)C(=O)NC(CO)C(=O)NCc1ccccc1 (mixture of isomers) [ER028, HONH-iBM-Ser-NHBn]"
4,4.20,"CC(C)CC(C(=O)NO)C(=O)NC(CC(N)=O)C(=O)NCc1ccccc1 (mixture of isomers) [ER017, HONH-iBM-Asn-NHBn]"
5,4.52,"CC(C)CC(C(=O)NO)C(=O)NC(CC(N)=O)C(=O)NCc1cccc(N)c1 (mixture of isomers) [ER031, HONH-iBM-Asn-NHBn(m-NH2)]"

# Target: collagenase (Homo sapiens, UniProt P22894)
# Experiment: Affinity for collagenase (statement in text, HNC complex)
# Format: binding
# Conditions: not given
# Sequence of collagenase (P22894 101-467): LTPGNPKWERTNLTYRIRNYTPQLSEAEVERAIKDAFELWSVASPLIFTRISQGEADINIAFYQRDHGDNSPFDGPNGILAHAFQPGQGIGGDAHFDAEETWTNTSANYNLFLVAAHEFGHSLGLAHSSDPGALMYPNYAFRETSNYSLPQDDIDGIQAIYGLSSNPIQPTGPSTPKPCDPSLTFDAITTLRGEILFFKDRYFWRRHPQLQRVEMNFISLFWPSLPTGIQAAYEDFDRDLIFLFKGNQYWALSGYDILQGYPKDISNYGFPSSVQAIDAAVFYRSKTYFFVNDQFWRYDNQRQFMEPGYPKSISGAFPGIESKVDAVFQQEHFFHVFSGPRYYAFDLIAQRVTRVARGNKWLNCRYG
row,Compound,affinity for collagenase (in words)
1,"CC(C)C[C@H](NC(=O)[C@@H]1CCCN1)C(=O)NCC(=O)NO [PLG-NHOH, L-prolyl-L-leucyl-glycin-hydroxamate] (H-Pro-Leu-Gly-{NHOH})",relatively weak

# System: MMPs
# Experiment: Inhibition of MMPs
# Format: biochemical
# Conditions: not given
row,Compound,inhibition of MMPs (in words)
1,"CC(C)CC(C(=O)NO)C(=O)N[C@@H](C)C(=O)NCC(N)=O (stereo partly drawn) [ER029, HONH-2-isobutylmalonyl-L-alanyl glycinamide, reference compound]",very poorly
